# Columns and labels:
# Test in all cases: Test C pre/postemergence
# Assay type in all cases: in vivo
# [1] = tested on: kochia (Kochia scoparia); details: for Kochia plant response rating: scale 0 to 100 (0 no effect, 100 complete control)
# Text: (§1) Seeds or nutlets of plant species selected from bermudagrass (Cynodon dactylon), Surinam grass (Brachiaria decumbens), cocklebur (Xanthium strumarium), corn (Zea mays), crabgrass (Digitaria sanguinalis), woolly cupgrass (Eriochloa villosa), giant foxtail (Setaria faberii), goosegrass (Eleusine indica), johnsongrass (Sorghum halepense), kochia (Kochia scoparia), lambsquarters (Chenopodium album), morningglory (Ipomoea coccinea), eastern black nightshade (Solanum ptycanthum), yellow nutsedge (Cyperus esculentus), pigweed (Amaranthus retroflexus), common ragweed (Ambrosia elatior), soybean (Glycine max), common (oilseed) sunflower (Helianthus annuus), and velvetleaf (Abutilon theophrasti) were planted and treated preemergence with test chemicals formulated in a non-phytotoxic solvent mixture which included a surfactant.
# (§2) At the same time, plants selected from these crop and weed species and also winter barley (Hordeum vulgare), blackgrass (Alopecurus myosuroides), canarygrass (Phalaris minor), chickweed (Stellaria media), downy brome (Bromus tectorum), green foxtail (Setaria viridis), Italian ryegrass (Lolium multiflorum), wheat (Triticum aestivum), wild oat (Avena fatua) and windgrass (Apera spica-venti) were treated with postemergence applications of some of the test chemicals formulated in the same manner. Plants ranged in height from 2 to 18 cm (1- to 4-leaf stage) for postemergence treatments. Plant species in the flooded paddy test consisted of rice (Oryza sativa), umbrella sedge (Cyperus difformis), duck salad (Heteranthera limosa) and barnyardgrass (Echinochloa crus-galli) grown to the 2-leaf stage for testing. Treated plants and controls were maintained in a greenhouse for 12 to 14 days, after which time all species were compared to controls and visually evaluated. Plant response ratings, summarized in Table C, are based on a scale of 0 to 100 where 0 is no effect and 100 is complete control. A dash (-) response means no test result.
# [2] = tested on: crabgrass (Digitaria sanguinalis); details: for Crabgrass plant response rating: scale 0 to 100 (0 no effect, 100 complete control)
# Text: as §1, §2
# [3] = tested on: cocklebur (Xanthium strumarium); details: for Cocklebur plant response rating: scale 0 to 100 (0 no effect, 100 complete control)
# Text: as §1, §2
# [4] = tested on: johnsongrass (Sorghum halepense); details: for Johnsongrass plant response rating: scale 0 to 100 (0 no effect, 100 complete control)
# Text: as §1, §2
# [5] = tested on: pigweed (Amaranthus retroflexus); details: for Pigweed plant response rating: scale 0 to 100 (0 no effect, 100 complete control)
# Text: as §1, §2
# [6] = Postemergence, 250 g ai/ha, scale 0 to 100
# [7] = Preemergence, 31 g ai/ha, scale 0 to 100, 0 no effect, 100 complete control
# [8] = Preemergence, 62 g ai/ha, scale 0 to 100, 0 no effect, 100 complete control
# [9] = Preemergence, 125 g ai/ha, scale 0 to 100
# [10] = Preemergence, 250 g ai/ha, scale 0 to 100
smiles,measurement,setting,value
CC(C)COC(=O)c1nc(C2CC2)nc(N)c1Br [Compound 17],"Plant response rating (scale of 0 to 100), Kochia","[1]; Postemergence, 31 g ai/ha",100
same,Kochia plant response rating,"[1]; Postemergence, 62 g ai/ha",100
same,Kochia plant response rating,"[1]; Postemergence, 125 g ai/ha",100
same,"Plant response rating, Kochia",[1]; [6],100
same,"Plant response rating, Kochia",[1]; [7],0
same,"Plant response rating, Kochia",[1]; [8],0
same,"Plant response rating, Kochia",[1]; [9],25
same,"Plant response rating, Kochia",[1]; [10],85
same,"Plant response rating (scale of 0 to 100), Crabgrass","[2]; Postemergence, 31 g ai/ha",0
same,Crabgrass plant response rating,"[2]; Postemergence, 62 g ai/ha",0
same,Crabgrass plant response rating,"[2]; Postemergence, 125 g ai/ha",20
same,"Plant response rating, Crabgrass",[2]; [6],65
same,"Plant response rating, Crabgrass",[2]; [7],0
same,"Plant response rating, Crabgrass",[2]; [8],0
same,"Plant response rating, Crabgrass",[2]; [9],20
same,"Plant response rating, Crabgrass",[2]; [10],80
same,"Plant response rating (scale of 0 to 100), Cocklebur","[3]; Postemergence, 31 g ai/ha",95
same,Cocklebur plant response rating,"[3]; Postemergence, 62 g ai/ha",100
same,Cocklebur plant response rating,"[3]; Postemergence, 125 g ai/ha",100
same,"Plant response rating, Cocklebur",[3]; [6],100
same,"Plant response rating, Cocklebur",[3]; [7],75
same,"Plant response rating, Cocklebur",[3]; [8],90
same,"Plant response rating, Cocklebur",[3]; [9],95
same,"Plant response rating, Cocklebur",[3]; [10],100
same,"Plant response rating (scale of 0 to 100), Johnsongrass","[4]; Postemergence, 31 g ai/ha",0
same,Johnsongrass plant response rating,"[4]; Postemergence, 62 g ai/ha",0
same,Johnsongrass plant response rating,"[4]; Postemergence, 125 g ai/ha",40
same,"Plant response rating, Johnsongrass",[4]; [6],60
same,"Plant response rating, Johnsongrass",[4]; [7],0
same,"Plant response rating, Johnsongrass",[4]; [8],0
same,"Plant response rating, Johnsongrass",[4]; [9],55
same,"Plant response rating, Johnsongrass",[4]; [10],75
same,"Plant response rating (scale of 0 to 100), Pigweed","[5]; Postemergence, 31 g ai/ha",45
same,Pigweed plant response rating,"[5]; Postemergence, 62 g ai/ha",65
same,Pigweed plant response rating,"[5]; Postemergence, 125 g ai/ha",75
same,"Plant response rating, Pigweed",[5]; [6],95
same,"Plant response rating, Pigweed",[5]; [7],95
same,"Plant response rating, Pigweed",[5]; [8],100
same,"Plant response rating, Pigweed",[5]; [9],100
same,"Plant response rating, Pigweed",[5]; [10],100

# Source: patent publication US8802597B2, “Herbicidal pyrimidines” (E I du Pont de Nemours and Company, priority 2003, dated 2014)
